From patent US20020111274A1, “1-alkyl-3-[1-(substituted phenyl) benzotriazol-6-yl] uracils” (BASF Aktiengesellschaft, priority 2000, published 2002)

Legend:
Set-up in all cases: scale not given here
[1] = system: ORYSAT Rice, Tebonnet; assay: Postemergence herbicidal evaluation, ORYSAT; assay type: in vivo, Oryza sativa, (L.); details: postemergence spray, rated about two-three weeks after treatment
How it was run: (§1)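 Two-week-old seedlings sprayed postemergence with compound in 80/20 acetone/water plus 1.0% methylated seed oil, at about 0.006–0.400 kg/ha, through a nozzle at 40 psi. Plants kept under greenhouse conditions and visually rated about two–three weeks after treatment; ratings from repeat tests averaged.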

[2] = system: GALAP Galium; assay: Postemergence herbicidal evaluation, GALAP; assay type: in vivo, Galium aparine; details: postemergence spray, rated about two-three weeks after treatment
How it was run: as §1

[3] = system: ORYSAT Rice, Tebonnet; assay: Preemergence herbicidal evaluation, ORYSAT; assay type: in vivo, Oryza sativa, (L.); details: preemergence
How it was run: (§2)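 Seeds mixed with potting soil were planted on about one inch of soil in cups, then sprayed with the test compound in aqueous acetone at roughly 0.013 to 0.800 kg per hectare. Plants were kept under standard greenhouse care and injury was rated four to five weeks after treatment.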

[4] = system: ECHOG Barnyardgrass; assay: Postemergence herbicidal evaluation, ECHOG; assay type: in vivo, Echinochloa crus-galli, (L.) Beau; details: postemergence spray, rated about two-three weeks after treatment
How it was run: as §1

[5] = system: ECHOG Barnyardgrass; assay: Preemergence herbicidal evaluation, ECHOG; assay type: in vivo, Echinochloa crus-galli, (L.) Beau; details: preemergence
How it was run: as §2

[6] = system: TRZAWR Wheat, Winter, cv Riband; assay: Preemergence herbicidal evaluation, TRZAWR; assay type: in vivo, Triticum aestivum; details: preemergence
How it was run: as §2

[7] = system: CHEAL Lambsquarters, Common; assay: Postemergence herbicidal evaluation, CHEAL; assay type: in vivo, Chenopodium album, L.; details: postemergence spray, rated about two-three weeks after treatment
How it was run: as §1

[8] = system: IPOHE Morningglory, Ivyleaf; assay: Postemergence herbicidal evaluation, IPOHE; assay type: in vivo, Ipomoea hederacea, (L.) Jacq.; details: postemergence spray, rated about two-three weeks after treatment
How it was run: as §1

[9] = system: TRZAWR Wheat, Winter, cv Riband; assay: Postemergence herbicidal evaluation, TRZAWR; assay type: in vivo, Triticum aestivum; details: postemergence spray, rated about two-three weeks after treatment
How it was run: as §1

[10] = system: ABUTH Velvetleaf; assay: Postemergence herbicidal evaluation, ABUTH; assay type: in vivo, Abutilon theophrasti, Medic.; details: postemergence spray, rated about two-three weeks after treatment
How it was run: as §1

[11] = system: AMBEL Ragweed, Common; assay: Preemergence herbicidal evaluation, AMBEL; assay type: in vivo, Ambrosia artemisifolia, L.; details: preemergence
How it was run: as §2

[12] = system: IPOHE Morningglory, Ivyleaf; assay: Preemergence herbicidal evaluation, IPOHE; assay type: in vivo, Ipomoea hederacea, (L.) Jacq.; details: preemergence
How it was run: as §2

[13] = system: CHEAL Lambsquarters, Common; assay: Preemergence herbicidal evaluation, CHEAL; assay type: in vivo, Chenopodium album, L.; details: preemergence
How it was run: as §2

[14] = system: AMBEL Ragweed, Common; assay: Postemergence herbicidal evaluation, AMBEL; assay type: in vivo, Ambrosia artemisifolia, L.; details: postemergence spray, rated about two-three weeks after treatment
How it was run: as §1

[15] = system: SETVI Foxtail, Green; assay: Preemergence herbicidal evaluation, SETVI; assay type: in vivo, Setaria viridis, (L.) Beau; details: preemergence
How it was run: as §2

[16] = system: GLXMAW Soybean, Williams; assay: Postemergence herbicidal evaluation, GLXMAW; assay type: in vivo, Glycine max, (L.) Merr. cv Williams; details: postemergence spray, rated about two-three weeks after treatment
How it was run: as §1

[17] = system: SETVI Foxtail, Green; assay: Postemergence herbicidal evaluation, SETVI; assay type: in vivo, Setaria viridis, (L.) Beau; details: postemergence spray, rated about two-three weeks after treatment
How it was run: as §1

[18] = system: CASOB Sicklepod; assay: Preemergence herbicidal evaluation, CASOB; assay type: in vivo, Cassia obtusifolia, L.; details: preemergence
How it was run: as §2

[19] = system: ZEAMX Corn, Field; assay: Preemergence herbicidal evaluation, ZEAMX; assay type: in vivo, Zea mays, L. (Sammel-Bezeichnung); details: preemergence
How it was run: as §2

[20] = system: ZEAMX Corn, Field; assay: Postemergence herbicidal evaluation, ZEAMX; assay type: in vivo, Zea mays, L. (Sammel-Bezeichnung); details: postemergence spray, rated about two-three weeks after treatment
How it was run: as §1

[21] = system: GLXMAW Soybean, Williams; assay: Preemergence herbicidal evaluation, GLXMAW; assay type: in vivo, Glycine max, (L.) Merr. cv Williams; details: preemergence
How it was run: as §2

[22] = system: ABUTH Velvetleaf; assay: Preemergence herbicidal evaluation, ABUTH; assay type: in vivo, Abutilon theophrasti, Medic.; details: preemergence
How it was run: as §2

[23] = system: CASOB Sicklepod; assay: Postemergence herbicidal evaluation, CASOB; assay type: in vivo, Cassia obtusifolia, L.; details: postemergence spray, rated about two-three weeks after treatment
How it was run: as §1

[24] = system: GALAP Galium; assay: Preemergence herbicidal evaluation, GALAP; assay type: in vivo, Galium aparine; details: preemergence
How it was run: as §2

## COc1ccc(Cl)cc1-n1nnc2cc(F)c(-n3c(=O)cc(C(F)(F)F)n(C)c3=O)cc21 [Example 30]
[1]; 0.008 kg/ha
  Postemergence herbicidal rating ORYSAT: 3.5
[1]; 0.016 kg/ha
  Postemergence herbicidal rating ORYSAT: 3.5
[1]; 0.032 kg/ha
  Postemergence herbicidal rating ORYSAT: 4.0
[1]; 0.062 kg/ha
  Postemergence herbicidal rating ORYSAT: 4.5
[2]; 0.008 kg/ha
  Postemergence herbicidal rating GALAP: 1.0
[2]; 0.016 kg/ha
  Postemergence herbicidal rating GALAP: 3.0
[2]; 0.032 kg/ha
  Postemergence herbicidal rating GALAP: 4.0
[2]; 0.062 kg/ha
  Postemergence herbicidal rating GALAP: 4.0
[3]; rate 0.016 kg/ha
  ORYSAT herbicidal rating: 0.0
[3]; rate 0.032 kg/ha
  ORYSAT herbicidal rating: 1.0
[3]; rate 0.062 kg/ha
  ORYSAT herbicidal rating: 2.0
[3]; rate 0.125 kg/ha
  ORYSAT herbicidal rating: 4.0
[4]; 0.008 kg/ha
  Postemergence herbicidal rating ECHCG: 2.0
[4]; 0.016 kg/ha
  Postemergence herbicidal rating ECHCG: 4.0
[4]; 0.032 kg/ha
  Postemergence herbicidal rating ECHCG: 4.0
[4]; 0.062 kg/ha
  Postemergence herbicidal rating ECHCG: 6.0
[5]; rate 0.016 kg/ha
  ECHCG herbicidal rating: 1.0
[5]; rate 0.032 kg/ha
  ECHCG herbicidal rating: 5.0
[5]; rate 0.062 kg/ha
  ECHCG herbicidal rating: 7.0
[5]; rate 0.125 kg/ha
  ECHCG herbicidal rating: 7.0
[6]; rate 0.016 kg/ha
  TRZAWR herbicidal rating: 0.0
[6]; rate 0.032 kg/ha
  TRZAWR herbicidal rating: 1.0
[6]; rate 0.062 kg/ha
  TRZAWR herbicidal rating: 2.0
[6]; rate 0.125 kg/ha
  TRZAWR herbicidal rating: 2.0
[7]; 0.008 kg/ha
  Postemergence herbicidal rating CHEAL: 9.0
[7]; 0.016 kg/ha
  Postemergence herbicidal rating CHEAL: 9.0
[7]; 0.032 kg/ha
  Postemergence herbicidal rating CHEAL: 9.0
[7]; 0.062 kg/ha
  Postemergence herbicidal rating CHEAL: 9.0
[8]; 0.008 kg/ha
  Postemergence herbicidal rating IPOHE: 9.0
[8]; 0.016 kg/ha
  Postemergence herbicidal rating IPOHE: 9.0
[8]; 0.032 kg/ha
  Postemergence herbicidal rating IPOHE: 9.0
[8]; 0.062 kg/ha
  Postemergence herbicidal rating IPOHE: 9.0
[9]; 0.008 kg/ha
  Postemergence herbicidal rating TRZAWR: 3.5
[9]; 0.016 kg/ha
  Postemergence herbicidal rating TRZAWR: 3.5
[9]; 0.032 kg/ha
  Postemergence herbicidal rating TRZAWR: 4.0
[9]; 0.062 kg/ha
  Postemergence herbicidal rating TRZAWR: 4.5
[10]; 0.008 kg/ha
  Postemergence herbicidal rating ABUTH: 9.0
[10]; 0.016 kg/ha
  Postemergence herbicidal rating ABUTH: 9.0
[10]; 0.032 kg/ha
  Postemergence herbicidal rating ABUTH: 9.0
[10]; 0.062 kg/ha
  Postemergence herbicidal rating ABUTH: 9.0
[11]; rate 0.016 kg/ha
  AMBEL herbicidal rating: 0.0
[11]; rate 0.032 kg/ha
  AMBEL herbicidal rating: 0.0
[11]; rate 0.062 kg/ha
  AMBEL herbicidal rating: 3.0
[11]; rate 0.125 kg/ha
  AMBEL herbicidal rating: 6.0
[12]; rate 0.016 kg/ha
  IPOHE herbicidal rating: 0.0
[12]; rate 0.032 kg/ha
  IPOHE herbicidal rating: 0.0
[12]; rate 0.062 kg/ha
  IPOHE herbicidal rating: 4.0
[12]; rate 0.125 kg/ha
  IPOHE herbicidal rating: 3.0
[13]; rate 0.016 kg/ha
  CHEAL herbicidal rating: 9.0
[13]; rate 0.032 kg/ha
  CHEAL herbicidal rating: 9.0
[13]; rate 0.062 kg/ha
  CHEAL herbicidal rating: 9.0
[13]; rate 0.125 kg/ha
  CHEAL herbicidal rating: 9.0
[14]; 0.008 kg/ha
  Postemergence herbicidal rating AMBEL: 9.0
[14]; 0.016 kg/ha
  Postemergence herbicidal rating AMBEL: 9.0
[14]; 0.032 kg/ha
  Postemergence herbicidal rating AMBEL: 9.0
[14]; 0.062 kg/ha
  Postemergence herbicidal rating AMBEL: 9.0
[15]; rate 0.016 kg/ha
  SETVI herbicidal rating: 4.0
[15]; rate 0.032 kg/ha
  SETVI herbicidal rating: 7.0
[15]; rate 0.062 kg/ha
  SETVI herbicidal rating: 9.0
[15]; rate 0.125 kg/ha
  SETVI herbicidal rating: 9.0
[16]; 0.008 kg/ha
  Postemergence herbicidal rating GLXMAW: 6.5
[16]; 0.016 kg/ha
  Postemergence herbicidal rating GLXMAW: 6.5
[16]; 0.032 kg/ha
  Postemergence herbicidal rating GLXMAW: 8.0
[16]; 0.062 kg/ha
  Postemergence herbicidal rating GLXMAW: 8.0
[17]; 0.008 kg/ha
  Postemergence herbicidal rating SETVI: 7.0
[17]; 0.016 kg/ha
  Postemergence herbicidal rating SETVI: 6.0
[17]; 0.032 kg/ha
  Postemergence herbicidal rating SETVI: 9.0
[17]; 0.062 kg/ha
  Postemergence herbicidal rating SETVI: 9.0
[18]; rate 0.016 kg/ha
  CASOB herbicidal rating: 0.0
[18]; rate 0.032 kg/ha
  CASOB herbicidal rating: 1.0
[18]; rate 0.062 kg/ha
  CASOB herbicidal rating: 0.0
[18]; rate 0.125 kg/ha
  CASOB herbicidal rating: 2.0
[19]; rate 0.016 kg/ha
  ZEAMX herbicidal rating: 1.0
[19]; rate 0.032 kg/ha
  ZEAMX herbicidal rating: 3.0
[19]; rate 0.062 kg/ha
  ZEAMX herbicidal rating: 5.0
[19]; rate 0.125 kg/ha
  ZEAMX herbicidal rating: 7.0
[20]; 0.008 kg/ha
  Postemergence herbicidal rating ZEAMX: 4.5
[20]; 0.016 kg/ha
  Postemergence herbicidal rating ZEAMX: 4.5
[20]; 0.032 kg/ha
  Postemergence herbicidal rating ZEAMX: 5.0
[20]; 0.062 kg/ha
  Postemergence herbicidal rating ZEAMX: 5.0
[21]; rate 0.016 kg/ha
  GLXMAW herbicidal rating: 1.0
[21]; rate 0.032 kg/ha
  GLXMAW herbicidal rating: 1.0
[21]; rate 0.062 kg/ha
  GLXMAW herbicidal rating: 1.0
[21]; rate 0.125 kg/ha
  GLXMAW herbicidal rating: 2.0
[22]; rate 0.016 kg/ha
  ABUTH herbicidal rating: 0.0
[22]; rate 0.125 kg/ha
  ABUTH herbicidal rating: 6.0
[23]; 0.008 kg/ha
  Postemergence herbicidal rating CASOB: 3.0
[23]; 0.016 kg/ha
  Postemergence herbicidal rating CASOB: 4.0
[23]; 0.032 kg/ha
  Postemergence herbicidal rating CASOB: 7.0
[23]; 0.062 kg/ha
  Postemergence herbicidal rating CASOB: 8.0
[24]; rate 0.016 kg/ha
  GALAP herbicidal rating: 2.0
[24]; rate 0.032 kg/ha
  GALAP herbicidal rating: 2.0
[24]; rate 0.062 kg/ha
  GALAP herbicidal rating: 3.0
[24]; rate 0.125 kg/ha
  GALAP herbicidal rating: 4.0
